Columns and labels:
[1] = molecular target: 5-hydroxytryptamine receptor 1B (Rattus norvegicus, UniProt P28564); type: cell membranes, Wistar, Cerebral cortex, Membrane; also: in other assays of this panel Not Active means under 50% inhibition at 10 µM
[2] = molecular target: T1, Alpha-2C adrenergic receptor (Homo sapiens, UniProt P18825); assay: DRUGMATRIX: Adrenergic Alpha-2C radioligand binding (ligand: [3H] MK-912); type: cell membranes, Sf9, Membrane
T1 sequence (P18825 whole entry): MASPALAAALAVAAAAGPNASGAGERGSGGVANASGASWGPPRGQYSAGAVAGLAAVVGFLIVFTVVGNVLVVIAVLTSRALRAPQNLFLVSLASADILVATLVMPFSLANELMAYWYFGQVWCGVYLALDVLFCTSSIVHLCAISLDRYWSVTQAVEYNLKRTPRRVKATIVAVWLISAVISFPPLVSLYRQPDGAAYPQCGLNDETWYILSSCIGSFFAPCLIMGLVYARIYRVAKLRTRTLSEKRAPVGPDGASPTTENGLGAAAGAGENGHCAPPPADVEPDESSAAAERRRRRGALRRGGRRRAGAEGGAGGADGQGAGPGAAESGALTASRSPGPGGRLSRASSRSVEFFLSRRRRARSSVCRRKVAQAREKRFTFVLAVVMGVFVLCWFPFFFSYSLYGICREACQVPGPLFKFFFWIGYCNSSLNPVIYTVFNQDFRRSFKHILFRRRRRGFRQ

[3] = molecular target: Vascular endothelial growth factor receptor 1 (Homo sapiens, UniProt P17948); type: cell-based; details: huvec; also: in other assays of this panel Not Active means under 50% inhibition at 10 µM
[4] = molecular target: Acetylcholinesterase (Homo sapiens, UniProt P22303); assay: DRUGMATRIX: Acetylcholinesterase enzyme inhibition (substrate: acetylthiocholine); type: cell-based, HEK293; details: Not Active = under 50% inhibition at 10 µM
[5] = molecular target: T2, D(4) dopamine receptor (Homo sapiens, UniProt P21917); assay: DRUGMATRIX: Dopamine D4.2 radioligand binding (ligand: [3H] Spiperone); type: cell membranes, CHO-K1, Membrane; details: Not Active = under 50% inhibition at 10 µM
T2 sequence (P21917 whole entry): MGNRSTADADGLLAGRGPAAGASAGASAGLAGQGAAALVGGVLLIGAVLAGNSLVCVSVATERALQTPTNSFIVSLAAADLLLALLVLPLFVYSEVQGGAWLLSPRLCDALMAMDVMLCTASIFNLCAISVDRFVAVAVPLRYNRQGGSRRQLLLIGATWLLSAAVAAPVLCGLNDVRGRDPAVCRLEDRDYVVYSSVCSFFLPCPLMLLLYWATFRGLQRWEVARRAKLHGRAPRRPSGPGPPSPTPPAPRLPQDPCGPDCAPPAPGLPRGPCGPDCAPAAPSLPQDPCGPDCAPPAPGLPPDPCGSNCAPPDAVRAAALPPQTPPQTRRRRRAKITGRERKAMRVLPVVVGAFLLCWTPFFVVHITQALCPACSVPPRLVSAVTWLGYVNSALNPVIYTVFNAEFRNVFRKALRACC

Chain of Acetylcholinesterase (P22303 whole entry): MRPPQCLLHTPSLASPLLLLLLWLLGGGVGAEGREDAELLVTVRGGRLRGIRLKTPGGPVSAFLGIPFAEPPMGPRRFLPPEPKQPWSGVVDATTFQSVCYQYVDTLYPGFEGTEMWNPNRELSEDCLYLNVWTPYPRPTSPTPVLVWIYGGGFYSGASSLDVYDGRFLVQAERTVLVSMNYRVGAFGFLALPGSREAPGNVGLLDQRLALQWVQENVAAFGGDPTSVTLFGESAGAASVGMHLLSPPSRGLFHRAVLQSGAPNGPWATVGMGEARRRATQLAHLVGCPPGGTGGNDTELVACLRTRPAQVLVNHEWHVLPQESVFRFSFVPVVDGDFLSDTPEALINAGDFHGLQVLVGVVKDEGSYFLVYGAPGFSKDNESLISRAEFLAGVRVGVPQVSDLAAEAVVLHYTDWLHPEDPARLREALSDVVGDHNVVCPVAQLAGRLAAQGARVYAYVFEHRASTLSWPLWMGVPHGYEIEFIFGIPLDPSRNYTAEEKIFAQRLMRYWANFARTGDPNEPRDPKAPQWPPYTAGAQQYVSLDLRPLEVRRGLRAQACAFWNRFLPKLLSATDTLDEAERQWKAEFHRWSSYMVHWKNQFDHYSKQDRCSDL
Chain of 5-hydroxytryptamine receptor 1B (P28564 whole entry): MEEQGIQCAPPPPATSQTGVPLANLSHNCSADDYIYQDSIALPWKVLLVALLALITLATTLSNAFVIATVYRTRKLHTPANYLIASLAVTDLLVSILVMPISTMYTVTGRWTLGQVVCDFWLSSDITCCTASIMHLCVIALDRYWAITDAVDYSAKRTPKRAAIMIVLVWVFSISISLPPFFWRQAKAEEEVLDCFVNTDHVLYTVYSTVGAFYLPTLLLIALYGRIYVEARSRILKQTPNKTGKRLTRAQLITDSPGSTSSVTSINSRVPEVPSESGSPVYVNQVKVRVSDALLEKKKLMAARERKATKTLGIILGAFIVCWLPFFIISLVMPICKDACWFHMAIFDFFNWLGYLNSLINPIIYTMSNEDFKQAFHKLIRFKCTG
Chain of Vascular endothelial growth factor receptor 1 (P17948 whole entry): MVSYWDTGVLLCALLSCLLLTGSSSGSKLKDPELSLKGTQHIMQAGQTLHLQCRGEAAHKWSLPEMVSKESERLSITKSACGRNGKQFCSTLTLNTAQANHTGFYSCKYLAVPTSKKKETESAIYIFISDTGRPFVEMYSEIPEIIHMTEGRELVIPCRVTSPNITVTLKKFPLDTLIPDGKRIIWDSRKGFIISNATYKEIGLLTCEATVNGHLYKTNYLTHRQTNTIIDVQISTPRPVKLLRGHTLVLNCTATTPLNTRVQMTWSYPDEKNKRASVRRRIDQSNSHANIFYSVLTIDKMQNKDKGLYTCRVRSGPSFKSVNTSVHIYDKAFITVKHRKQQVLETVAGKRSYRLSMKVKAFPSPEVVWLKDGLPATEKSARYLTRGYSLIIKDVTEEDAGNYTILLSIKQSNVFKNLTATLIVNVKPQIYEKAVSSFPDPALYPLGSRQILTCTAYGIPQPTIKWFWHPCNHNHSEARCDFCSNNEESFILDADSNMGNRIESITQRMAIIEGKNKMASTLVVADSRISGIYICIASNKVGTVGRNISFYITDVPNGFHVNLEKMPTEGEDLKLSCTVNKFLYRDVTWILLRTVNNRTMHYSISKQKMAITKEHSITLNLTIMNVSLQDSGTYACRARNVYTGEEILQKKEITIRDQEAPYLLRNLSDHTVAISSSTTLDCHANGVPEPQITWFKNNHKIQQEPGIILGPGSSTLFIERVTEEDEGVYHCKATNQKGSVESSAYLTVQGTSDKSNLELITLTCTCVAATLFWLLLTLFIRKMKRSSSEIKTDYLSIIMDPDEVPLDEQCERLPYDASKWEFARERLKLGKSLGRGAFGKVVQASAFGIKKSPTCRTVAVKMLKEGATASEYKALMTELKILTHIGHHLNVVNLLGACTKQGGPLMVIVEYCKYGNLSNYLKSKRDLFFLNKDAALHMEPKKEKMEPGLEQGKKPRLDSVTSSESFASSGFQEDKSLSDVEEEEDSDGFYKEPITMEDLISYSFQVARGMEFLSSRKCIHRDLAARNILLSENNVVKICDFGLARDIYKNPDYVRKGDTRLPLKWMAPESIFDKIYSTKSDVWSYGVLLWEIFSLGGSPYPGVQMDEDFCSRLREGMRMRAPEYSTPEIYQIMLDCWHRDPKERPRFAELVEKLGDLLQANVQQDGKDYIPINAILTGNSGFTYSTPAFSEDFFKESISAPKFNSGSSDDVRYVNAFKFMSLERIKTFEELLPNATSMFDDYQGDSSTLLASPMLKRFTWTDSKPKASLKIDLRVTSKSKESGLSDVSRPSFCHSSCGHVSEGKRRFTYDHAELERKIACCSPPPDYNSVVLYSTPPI

Molecule	IC50 [1]	IC50 ([2]; sf9)	IC50 [3]	IC50 ([4]; hek293)	IC50 ([5]; cho-k1)	also measured
CCCCC(=O)N(Cc1ccc(-c2ccccc2-c2nnn[nH]2)cc1)[C@H](C(=O)O)C(C)C	Not Active	Not Active	Not Active	Not Active	Not Active	
O=C(O)COc1ccc(C(=O)c2cccs2)c(Cl)c1Cl	Not Active	Not Active	Not Active	Not Active	Not Active	
CN1[C@@H]2CC[C@H]1C[C@@H](OC(c1ccccc1)c1ccccc1)C2 [BENZTROPINE]	Not Active		Not Active	Not Active	Not Active	
C[C@@](Cc1ccc(O)c(O)c1)(NN)C(=O)O.O [CARBIDOPA]	Not Active	Not Active	Not Active	Not Active	Not Active	
CN1CCN(C2=Nc3cc(Cl)ccc3Nc3ccccc32)CC1 [CLOZAPINE]			Not Active	Not Active		
CC(C)NC[C@@H](O)COc1cccc2ccccc12 [DEXPROPRANOLOL]	Not Active	Not Active	Not Active	Not Active	Not Active	
CC(C)NC[C@H](O)COc1cccc2ccccc12 [LEVOPROPRANOLOL]	Not Active	Not Active	Not Active	Not Active	Not Active	
O=C(O)CCCCC1CCSS1 (stereo not drawn) [LIPOIC ACID, ALPHA]	Not Active	Not Active	Not Active	Not Active	Not Active	
CN(C)C(=O)C(CCN1CCC(O)(c2ccc(Cl)cc2)CC1)(c1ccccc1)c1ccccc1 [LOPERAMIDE]	Not Active	Not Active	Not Active	Not Active	Not Active	
Clc1ccc(COC(Cn2ccnc2)c2ccc(Cl)cc2Cl)c(Cl)c1 (configuration not stated) [MICONAZOLE]		Not Active	Not Active			IC50 ([1]; read-out: IC50): 20.6 µM; Ki ([1]; read-out: Ki): 9.36 µM; IC50 ([4]; read-out: IC50): 18.7 µM; IC50 ([5]; read-out: IC50): 15.3 µM; Ki ([5]; read-out: Ki): 5.35 µM
Oc1ccc2c3c1O[C@H]1[C@@H](O)CC[C@@]4(O)[C@@H](C2)N(CC2CCC2)CC[C@]314 [NALBUPHINE]	Not Active	Not Active	Not Active	Not Active	Not Active	
C[C@]12C=CC(=O)C=C1CC[C@@H]1[C@@H]2C(=O)C[C@@]2(C)[C@H]1CC[C@]2(O)C(=O)CO [PREDNISONE]	Not Active	Not Active	Not Active	Not Active	Not Active	
OCCOCCN1CCN(C2=Nc3ccccc3Sc3ccccc32)CC1 [QUETIAPINE]	Not Active		Not Active	Not Active	Not Active	
COC(=O)[C@H]1[C@H]2C[C@@H]3c4[nH]c5cc(OC)ccc5c4CCN3C[C@H]2C[C@@H](OC(=O)c2cc(OC)c(OC)c(OC)c2)[C@@H]1OC [RESERPINE]	Not Active	Not Active	Not Active	Not Active	Not Active	
O=C(O)c1ccccc1O [SALICYLIC ACID]	Not Active	Not Active	Not Active	Not Active	Not Active	
C[S+]([O-])c1ccc(-c2nc(-c3ccncc3)c(-c3ccc(F)cc3)[nH]2)cc1 (configuration not stated) [SB-203580]	Not Active	Not Active		Not Active	Not Active	
CC1CCC(NC(=O)N(CCCl)N=O)CC1 (configuration not stated) [SEMUSTINE]	Not Active	Not Active	Not Active	Not Active	Not Active	
O=C1C[C@@H]2OCC=C3CN4CC[C@]56c7ccccc7N1[C@H]5[C@H]2[C@H]3C[C@H]46 [STRYCHNINE]	Not Active	Not Active	Not Active	Not Active	Not Active	
C[N+](C)(C)CCOC(=O)CCC(=O)OCC[N+](C)(C)C.[Cl-].[Cl-] [SUCCINYLCHOLINE CHLORIDE]	Not Active	Not Active	Not Active	Not Active	Not Active	
Nc1ccc(S(=O)(=O)NC(=O)c2ccccc2)cc1 [SULFABENZAMIDE]	Not Active	Not Active	Not Active	Not Active	Not Active	
CCCCCCCCNC(C)C(O)c1ccc(SC(C)C)cc1 (configuration not stated) [SULOCTIDIL]	Not Active		Not Active	Not Active	Not Active	IC50 ([2]; read-out: IC50): 3.45 µM; Ki ([2]; read-out: Ki): 0.501 µM
O=c1[nH]c(=O)n(C2CCCO2)cc1F (configuration not stated) [TEGAFUR]	Not Active	Not Active	Not Active	Not Active	Not Active	
CC(=N)S [THIOACETAMIDE]	Not Active	Not Active	Not Active	Not Active	Not Active	
Cc1ccc(C(=O)c2ccc(CC(=O)O)n2C)cc1 [TOLMETIN]	Not Active	Not Active	Not Active	Not Active	Not Active	
CC(=O)OCC(COC(C)=O)OC(C)=O [TRIACETIN]	Not Active	Not Active	Not Active	Not Active	Not Active	
CN1CCN(CCCN2c3ccccc3Sc3ccc(C(F)(F)F)cc32)CC1 [TRIFLUOPERAZINE]	Not Active	Not Active	Not Active	Not Active	Not Active	
TRANSPLATIN	Not Active	Not Active	Not Active	Not Active	Not Active	Ki [1]: Not Active; Ki ([2]; sf9): Not Active; Ki [3]: Not Active; Ki ([4]; hek293): Not Active; Ki ([5]; cho-k1): Not Active
ZIRCONIUM(IV) CHLORIDE	Not Active	Not Active	Not Active	Not Active	Not Active	Ki [1]: Not Active; Ki ([2]; sf9): Not Active; Ki [3]: Not Active; Ki ([4]; hek293): Not Active; Ki ([5]; cho-k1): Not Active

Reference: ChEMBL document CHEMBL1909046, “DrugMatrix in vitro pharmacology data”
